Measurements reported in US5714490A, “Tetrahydrofuran antifungals” (Schering Corporation, priority 1995, dated 1998).

Legend:
Aspergillus [1] = test: in vitro broth dilution MFC against Aspergillus; assay type: cell-based, Aspergillus flavus, fumigatus and other species; conditions: 37 strains
Description: (§1) The in vitro antifungal activity tests were performed via conventional broth dilution methods in Sabouraud dextrose broth ("SDB") medium and Eagles Minimum Essential Medium ("EMEM") against a large number of fungi. Minimum Inhibitory Concentrations ("MICs") were measured after 24, 48 and 72 hour tests. In many cases, Minimum Fungicidial Concentrations ("MFCS") were measured after 48 and 72 hours.

Dermatophytes [2] = test: in vitro broth dilution MIC against Dermatophytes; assay type: cell-based, T. rubrum, T. mentagrophytes, and T. tonsurans; conditions: 6 strains
Cryptococcus neoformans [3] = test: in vitro broth dilution MIC against Cryptococcus neoformans; assay type: cell-based; conditions: 3 strains
Description: as §1

Candida krusei [4] = test: in vitro broth dilution MIC against Candida krusei; assay type: cell-based; conditions: 16 strains
Description: as §1

Candida albicans [5] = conditions: 26 strains
Description: as §1

Candida albicans [6] = test: in vitro broth dilution MIC against Candida albicans; assay type: cell-based; conditions: 26 strains
Description: as §1

Candida glabrata [7] = test: in vitro broth dilution MFC against Candida glabrata; assay type: cell-based; conditions: 9 strains
Description: as §1

[8] = system: Candida tropicalis & stellatoidea; test: in vitro broth dilution MIC against Candida tropicalis & stellatoidea; assay type: cell-based; conditions: 5 strains
Description: as §1

Candida glabrata [9] = test: in vitro broth dilution MIC against Candida glabrata; assay type: cell-based; conditions: 9 strains
Description: as §1

Cryptococcus neoformans [10] = test: in vitro broth dilution MFC against Cryptococcus neoformans; assay type: cell-based; conditions: 3 strains
Description: as §1

Aspergillus [11] = test: in vitro broth dilution MIC against Aspergillus; assay type: cell-based, Aspergillus flavus, fumigatus and other species; conditions: 37 strains
Description: as §1

Candida krusei [12] = test: in vitro broth dilution MFC against Candida krusei; assay type: cell-based; conditions: 16 strains
Description: as §1

[13] = system: Candida tropicalis & stellatoidea; conditions: 5 strains
Description: as §1

Dermatophytes [14] = test: in vitro broth dilution MFC against Dermatophytes; assay type: cell-based, T. rubrum, T. mentagrophytes, and T. tonsurans; conditions: 6 strains
Description: as §1

[15] = system: cytochrome P-450 liver drug metabolizing enzymes; test: induction of liver drug metabolizing enzymes in an in vivo rat model; conditions: oral administration
[16] = serum levels, half life and tissue distribution after oral dosing; assay type: in vivo, mice, rats, dogs and monkeys

**Q.** For `CC[C@H]([C@H](C)O)n1ncn(-c2ccc(N3CCN(c4ccc(OC[C@@H]5CO[C@@](Cn6cncn6)(c6ccc(F)cc6F)C5)cc4)CC3)cc2)c1=O`, which “PERCENTAGE OF STRAINS WITH MFCs ≤1 MCG/ML” value (Aspergillus [1]) is on record?
**A.** 50 PERCENTAGE

**Q.** And the “PERCENTAGE OF STRAINS WITH MICs ≤1 MCG/ML” value (Dermatophytes [2])?
**A.** 100 PERCENTAGE

**Q.** What about the “PERCENTAGE OF STRAINS WITH MICs ≤1 MCG/ML” value (Cryptococcus neoformans [3]) of the same molecule?
**A.** 100 PERCENTAGE

**Q.** And the “PERCENTAGE OF STRAINS WITH MICs ≤1 MCG/ML” value (Candida krusei [4])?
**A.** 100 PERCENTAGE

**Q.** And the “PERCENTAGE OF STRAINS WITH MFCs ≤1 MCG/ML” value (Candida albicans [5])?
**A.** 100 PERCENTAGE

**Q.** What about the “PERCENTAGE OF STRAINS WITH MICs ≤1 MCG/ML” value (Candida albicans [6]) of the same molecule?
**A.** 100 PERCENTAGE

**Q.** What about the “PERCENTAGE OF STRAINS WITH MFCs ≤1 MCG/ML” value (Candida glabrata [7]) of the same molecule?
**A.** 22 PERCENTAGE

**Q.** What about the “PERCENTAGE OF STRAINS WITH MICs ≤1 MCG/ML” value [8] of the same molecule?
**A.** 100 PERCENTAGE

**Q.** And the “PERCENTAGE OF STRAINS WITH MICs ≤1 MCG/ML” value (Candida glabrata [9])?
**A.** 22 PERCENTAGE

**Q.** And the “PERCENTAGE OF STRAINS WITH MFCs ≤1 MCG/ML” value (Cryptococcus neoformans [10])?
**A.** 100 PERCENTAGE

**Q.** And the “PERCENTAGE OF STRAINS WITH MICs ≤1 MCG/ML” value (Aspergillus [11])?
**A.** 100 PERCENTAGE

**Q.** And the “PERCENTAGE OF STRAINS WITH MFCs ≤1 MCG/ML” value (Candida krusei [12])?
**A.** 88 PERCENTAGE

**Q.** What about the “PERCENTAGE OF STRAINS WITH MFCs ≤1 MCG/ML” value [13] of the same molecule?
**A.** 100 PERCENTAGE

**Q.** And the “PERCENTAGE OF STRAINS WITH MFCs ≤1 MCG/ML” value (Dermatophytes [14])?
**A.** 67 PERCENTAGE

**Q.** With `CC[C@@H]([C@@H](C)O)n1ncn(-c2ccc(N3CCN(c4ccc(OC[C@@H]5CO[C@@](Cn6cncn6)(c6ccc(F)cc6F)C5)cc4)CC3)cc2)c1=O` as the molecule, how does the “PERCENTAGE OF STRAINS WITH MFCs ≤1 MCG/ML” value (Aspergillus [1]) read?
**A.** 89 PERCENTAGE

**Q.** What about the “PERCENTAGE OF STRAINS WITH MICs ≤1 MCG/ML” value (Candida glabrata [9]) of the same molecule?
**A.** 33 PERCENTAGE

**Q.** What about the “PERCENTAGE OF STRAINS WITH MFCs ≤1 MCG/ML” value (Candida krusei [12]) of the same molecule?
**A.** 100 PERCENTAGE

**Q.** What about the “PERCENTAGE OF STRAINS WITH MFCs ≤1 MCG/ML” value (Dermatophytes [14]) of the same molecule?
**A.** 100 PERCENTAGE

**Q.** What does the source list for `CC[C@@H]([C@H](C)O)n1ncn(-c2ccc(N3CCN(c4ccc(OC[C@@H]5CO[C@@](Cn6cncn6)(c6ccc(F)cc6F)C5)cc4)CC3)cc2)c1=O` [drawing 20]?
**A.** induction of cytochrome P-450 liver drug metabolizing enzymes [15]: not inducers; serum half lives ([16]; O.D. dosing): very long serum half lives; tissue distribution ([16]; O.D. dosing): good tissue distribution; serum levels compared to azoles of similiar structure ([16]; oral dosing, methyl cellulose formulation, mice, rats, dogs and monkeys): consistently higher serum levels

**Q.** Which results are given for `CC[C@@H]([C@H](C)O)n1ncn(-c2ccc(N3CCN(c4ccc(OC[C@@H]5CO[C@@](Cn6cncn6)(c6ccc(F)cc6F)C5)cc4)CC3)cc2)c1=O` [drawing 22]?
**A.** PERCENTAGE OF STRAINS WITH MFCs ≤1 MCG/ML (Aspergillus [1]): 62 PERCENTAGE; PERCENTAGE OF STRAINS WITH MFCs ≤1 MCG/ML (Candida krusei [12]): 94 PERCENTAGE; PERCENTAGE OF STRAINS WITH MFCs ≤1 MCG/ML (Dermatophytes [14]): 83 PERCENTAGE
